Columns and labels:
[1] = system: mesangial cell line (1097); assay: TGF-β induced 3H-proline incorporation in cultured rat mesangial cells (Example 2); type: cell-based, Sprague-Dawley rats; conditions: renal mesangial cells, from 30 to 100 μM
Description: The anti-fibrotic effects of 3-methoxy-4-propargyloxybenzaldehyde (FT011) in a renal cell line were tested by measuring proline incorporation after transforming growth factor-β stimulation.
A well-characterized cloned mesangial cell line (1097) isolated from Sprague-Dawley rats was used between passages 30 and 40. Cells were cultured in Dulbecco's Modified Eagle's (DME) medium (Invitrogen, Grand Island, N.Y.) with heat-inactivated fetal bovine serum (FBS), 100 u/mL penicillin and 100 ug/mL streptomycin in a humidified 5% CO2 atmosphere at 37° C.
To compare the effects of tranilast and FT011 on collagen production in vitro, incorporation of tritiated proline was used. Mesangial cells were plated at low density into 24-well culture plates in DME/5% FBS and allowed to adhere overnight. The subconfluent cells were starved overnight in DME/0.5% FBS and […] L-ascorbic acid (Sigma-Aldrich). Tranilast or FT011 was then added to the wells, followed 4 hours later by L-[2,3,4,5-^3H]-proline, 0.5 μCi/well (Amersham) and TGF-β1, 5 ng/ml (R & D systems). Mesangial cells were harvested 48 hours post-stimulation, washed three times with ice cold PBS, and incubated with 10% trichloroacetic acid (TCA) for 30 minutes on ice, followed by a wash in ice cold 10% TCA. Cells were then solubilised in […] 1M NaOH. […]

[2] = Pilot study (toxicity assessment), 2 weeks oral gavage; type: in vivo, Sprague-Dawley (SD) rats; conditions: 2 weeks
Description: A total of twenty male Sprague-Dawley (SD) rats weighing 200-250 g were randomised to either FT011 (Fibrotech Therapeutics Pty Ltd, Melbourne, Australia) or Tranilast (Pharm Chemical, Shanghai Lansheng Corporation, China) at the dose of 50 mg, 100 mg, 200 mg and 400 mg/kg/day by gavage twice daily (n=2-3 per group). A control group of animals were gavaged with vehicle (1% carboxy methyl cellulose). The study was conducted for 2 weeks. Animals were bled daily at one, four, and eight hours after oral gavage to measure the plasma concentration. Serum was also collected to assess renal and liver function at the end of the study (plasma creatine and urate, ALT and bilirubin). Rats were individually housed in metabolic cages at the end of the study, habituated for 2 to 3 hours, and urine collected over 24 hours. Animals continued to have free access to tap water and standard laboratory chow during this period. The biochemistry tests performed at the department of pathology, St Vincent's hospital. Major organs including lung, heart, liver, spleen and kidney were harvested and immersed fix with 10% neutral buffered formalin and then embedded paraffin for subsequent light microscope examination.

cardiac fibroblasts = conditions: experimental model of diabetic cardiac disease [15]; cited from earlier work
[3] = patients with Gilbert's syndrome UGT1A1 variant [19]; cited from earlier work
rat mesangial cell line [4] = assay: TGF-β stimulated 3H-proline incorporation in mesangial cells (Example 5); type: cell-based; conditions: for inhibition at 10 µM / inhibition at 30 µM / inhibition at 1 µM / inhibition at 3 µM: Rattus norvegicus, Mesangial cell, 5 ng/mL TGF-β1, 44 h, read-out: Mesangial Cell Assay TGF-β % reduction of TGF-β stimulation_proline inc.; for Collagen synthesis: inhibition ranked against tranilast (T) or FT11
Description: (§1) A well-characterized cloned rat mesangial cell line (gift of D Nikolic-Patterson) is cultured in DMEM with FBS, 100 U/mL penicillin, and 100 ug/mL streptomycin in a humidified 5% CO2 atmosphere at 37° C. Cells are plated into 24-well culture dishes in DMEM/10% FBS at low density and allowed to adhere overnight. Cells are used between passages 20 and 40. The subconfluent cells are starved overnight in DMEM/0.1% FBS containing 150 uM L-ascorbic acid, prior to 4 hours of pre-treatment with or without tranilast or the FT compounds, followed by the addition of 5 ng/mL rhTGF-β11 (R&D Systems) and 1 uCi/mL of L-(2,3,4,5-^3H)-proline. Control wells have the compounds but no TGF-β1 added. Cells are incubated for a further 44 hours during which time their appearance is visually monitored. The cells are then washed three times in ice-cold PBS, twice in ice cold 10% TCA and solubilized in 750 uL 1M NaOH for 45 minutes at 37° C. or overnight at 4° C. A 500 uL aliquot is neutralized with 500 uL 1M HCl and 10 mL scintillation fluid (Instagel Plus-Perkin-Elmer) added. Counts are performed on a beta counter.
To normalize the proline incorporation counts to take into account the proliferative effects of TGF-β1, a BioRad protein assay is performed on a 100-150 uL aliquot of the remaining solubilized cells. The sample is neutralized with an equal amount of 1M HCl prior to the assay. The BSA standards used to construct the standard curve have the same amount of 1M NaOH and 1M HCl added as is present in the samples for assay.
Proline incorporation is expressed as cpm/ug protein. In order to compare inter-assay results, the incorporation is expressed as percentage reduction of TGF stimulated proline incorporation, where TGF alone gives 0% reduction and the zero control gives 100% reduction.

[5] = system: Neonatal rat cardiac fibroblasts (NCFs); assay: NCF TGF-β collagen synthesis, 3H-proline incorporation (Example 6); type: cell-based
Description: Neonatal SD rat cardiac myocytes (NCMs) and fibroblasts (NCFs) were isolated from one-day-old pups with enzymatic digestion as described in detail previously. NCFs were seeded and maintained in high-glucose (25 mmol/L) Dulbecco's modified Eagle's medium (DMEM) (Invitrogen Mount Waverley, Vic, Australia) in the presence of 1% antibiotic/antimycotic (AB/AM) and 10% fetal bovine serum (FBS) (JRH biosciences, Kansas, USA). NCFs were used at passage 2 [31]. Purified NCMs were seeded (1000 cells/mm^2) in 6-well plates and then maintained in serum-free DMEM (Invitrogen, NY, USA) supplemented with insulin and transferrin as described previously (4). Bromodeoxyuridine was included for the first 3 days. 50 mmol/L KCl was added to the medium to prevent spontaneous contraction characteristic of the plated NCMs.
NCFs collagen synthesis assays were performed as described previously. Briefly, NCFs plated at a density of 50,000 cells/well in 12-well plate and incubated overnight. NCFs were then serum starved for 24 hours in high-glucose DMEM. […]
For collagen synthesis, 1 μCi of [^3H]-Proline was added to each well and incubated for further 48 hours before harvest. Cells were harvested by precipitation with 10% TCA on ice for 30 min, before solubilisation with 0.75 mL of 1 mol/L NaOH overnight at 4° C. The samples were then neutralized with 1 mol/L HCl and ^3H level were counted with 10 ml scintillation fluid on a beta-counter to determine [^3H]-proline incorporation.

rat mesangial cell line [6] = assay: Effect on mesangial cell appearance (visual monitoring during proline assay); type: cell-based
Description: as §1
Compounds in Bold have Minimal Effect on Cell Appearance and Viability

Mesangial cells = assay: Mesangial cell MTT assay with TGF-β; type: cell-based, rat; conditions: @ 30 μM; suppressed = reduced cell viability
Description: Mesangial cells are plated at 15000 cells per well into 96-well culture dishes in DMEM/10% FBS and allowed to adhere overnight. The subconfluent cells are starved overnight in DMEM/0.1% FBS, prior to 4 hours of pre-treatment with or without tranilast or the FT compounds. Following the addition of 5 ng/mL rhTGF-β1, the cells are incubated in a humidified 5% CO2 atmosphere at 37° C. for 44 hours. Control wells have the compounds but no TGF-β1 added. The culture medium is removed from each well and 100 uL MTT (0.5 mg/mL) in starve medium is added to each well. The plates are incubated for a further 4 hours at 37° C. The culture medium is then removed and replaced with 100 μL isopropanol and incubated at 37° C. for 20 to 30 minutes, until the blue formazan crystals have dissolved. The absorbance is measured at a wavelength of 570 nm with background subtraction of 690 nm.
Suppressed MTT Result Indicates Reduced Cell Viability

In the case of `COc1ccc(/C=C/C(=O)Nc2ccccc2C(=O)O)cc1OC` [Analogue 1, (E)-2-[[3-(3,4-Dimethoxyphenyl)-1-oxo-2-propenyl]amino]benzoic acid, reference compound], the “proline incorporation after TGF-β stimulation” value [1] is reported as “significantly reduce”, the ALT ([2]; 50 mg/kg/day gavage) is reported as 40.5 ± 4.5 and the Body weight ([2]; 50 mg/kg/day gavage) is reported as 315 ± 19 Gram. The “Plasma Creatinine” value ([2]; 50 mg/kg/day gavage) was 43 ± 0.5 µmol/L, the “Plasma Urate” value ([2]; 50 mg/kg/day gavage) was less than 0.09 mmol/L and the ALT ([2]; 100 mg/kg/day gavage) was 41 ± 1. The Body weight ([2]; 100 mg/kg/day gavage) was 298 ± 21 Gram, the “Plasma Creatinine” value ([2]; 100 mg/kg/day gavage) was 43 ± 3.5 µmol/L and the “Plasma Urate” value ([2]; 100 mg/kg/day gavage) was less than 0.09 mmol/L. For the same compound, the ALT ([2]; 200 mg/kg/day gavage) was 41 ± 4.6, the Body weight ([2]; 200 mg/kg/day gavage) was 293 ± 10 Gram and the “Plasma Creatinine” value ([2]; 200 mg/kg/day gavage) was 45 ± 1 µmol/L. The “Plasma Urate” value ([2]; 200 mg/kg/day gavage) was less than 0.09 mmol/L, the ALT ([2]; 400 mg/kg/day gavage) was 40 ± 5 and the Body weight ([2]; 400 mg/kg/day gavage) was 314 ± 13 Gram. For the same compound, the “Plasma Creatinine” value ([2]; 400 mg/kg/day gavage) was 49 ± 7.8 µmol/L, the “Plasma Urate” value ([2]; 400 mg/kg/day gavage) was less than 0.09 mmol/L and the “TGF-β-induced collagen synthesis in cardiac fibroblasts” value (cardiac fibroblasts) was “attenuate”. For the same compound, the drug-induced adverse effect [3] was “hyperbilirubinemia”.

For `C#CCOc1cc(/C=C/C(=O)Nc2ccccc2C(=O)O)ccc1OC` [Analogue 17, (E)-2-[[3-(4-Methoxy-3-propargyloxyphenyl)-1-oxo-2-propenyl]amino]benzoic acid], the inhibition at 10 µM (rat mesangial cell line [4]) was 20 to 50%, the inhibition at 30 µM (rat mesangial cell line [4]) was roughly 55% and the Collagen synthesis (rat mesangial cell line [4]) was “>=FT11”. For the same compound, the “NCF TGF-β Collagen Synthesis” value ([5]; @ 30 μM) was roughly 70% at.

`COc1cc(/C=C/C(=O)Nc2ccccc2C(=O)O)ccc1OC1CCCC1` [Analogue 26, (E)-2-{[3-(4-Cyclopentyloxy-3-methoxyphenyl)-1-oxo-2-propenyl]amino}benzoic acid] showed an inhibition at 1 µM (rat mesangial cell line [4]) of roughly 13%, an inhibition at 3 µM (rat mesangial cell line [4]) of 30% and an inhibition at 10 µM (rat mesangial cell line [4]) of 85%. The inhibition at 30 µM (rat mesangial cell line [4]) was 93%, the Collagen synthesis (rat mesangial cell line [4]) was “>FT11” and the “Effect on mesangial cell appearance” value (rat mesangial cell line [6]; @ 30 μM) was “sparse”. For the same compound, the “Effect on mesangial cell appearance” value (rat mesangial cell line [6]; @ 100 μM) was “lifting off”, the “NCF TGF-β Collagen Synthesis” value ([5]; @ 10 μM) was 28% at and the melting point was 96 to 98 °C.

`COc1ccc(/C=C/C(=O)Nc2ccccc2C(=O)O)cc1OC1CCCC1` [Analogue 29, (E)-2-{[3-(3-Cyclopentyloxy-4-methoxyphenyl)-1-oxo-2-propenyl]amino}benzoic acid] showed an inhibition at 1 µM (rat mesangial cell line [4]) of roughly 8%, an inhibition at 3 µM (rat mesangial cell line [4]) of 40% and an inhibition at 10 µM (rat mesangial cell line [4]) of roughly 90%. The Collagen synthesis (rat mesangial cell line [4]) was “>FT11”, the “Effect on mesangial cell appearance” value (rat mesangial cell line [6]; @ 10 μM) was “Sparse @” and the “Effect on mesangial cell appearance” value (rat mesangial cell line [6]; @ 100 μM) was “Stressed @”. For the same compound, the “Mesangial cell MTT Assay TGF-β” value (Mesangial cells) was “Suppressed”, the “NCF TGF-β Collagen Synthesis” value ([5]; @ 10 μM) was 10% @ 10 μM and the “NCF TGF-β Collagen Synthesis” value ([5]; @ 30 μM) was 25% @ 30 μM. The melting point was 211 to 217 °C.

Reference: patent US9561201B2, “Therapeutic compounds” (Fibrotech Therapeutics Pty Ltd, priority 2006, dated 2017)
